Results taken from patent US20120115869A1, “TETRAZOLE DERIVATIVES” (MERCK SERONO S.A., priority 2009, published 2012).

Assays:
[1] = In vivo pharmacokinetic evaluation in mouse; conditions: mice
Protocol: In order to study the pharmacokinetic (PK) profile of test compounds in vivo, Sprague Dawley male rats or C57BL/6 female mice were dosed intravenously or after oral gavage. For both species, test compounds were dosed in solution at 1 mg/kg for i.v. route (10% ethanol, 10% N,N-dimethylacetamide, 30% propylene glycol, 50% water, v/v) and in suspension at 5 mg/kg (0.5% carboxymethylcellulose suspension, containing 0.25% Tween 20 in water) for oral gavage. PK profile in rat was obtained from 3 animals per dosing route and mouse PK profile was determined from 3 animals for each time points. The volume of administration was 2 mL/kg for i.v. dosing in both species and either 5 mL/kg (rat) or 10 mL/kg (mouse) for oral gavage. Blood samples (100 μL/time point) were collected at 0.083 (5 min), 0.25, 0.5, 1, 4, 7 and 24 hours post-dose for i.v. dosing, and at 0.5, 1, 4, 7 and 24 h for oral dosing, into heparin-Li+ containing tubes. For rats, all blood samples were collected trough a catheter in the carotid artery (placed in the artery the day before the experiment), under light isoflurane anesthesia, and stored on ice until centrifugation and plasma isolation. For mouse, blood samples were collected from intracardiac puncture at sacrifice at each time point and processed as described above for the rat. Plasma samples were stored frozen until analysis (−20° C. to −70° C.). For bioanalysis, samples were processed by protein precipitation (acetonitrile, formic acid 0.1%, addition of 3 volumes) after addition of one internal standard and analysed using a sensitive and selective LC/MS/MS method. An aliquot of the resulting supernatant was subject to LC/MS/MS analysis using a reverse phase column (Waters Xterra, C8, (3.5 μm particle size, 2.1×50 mm) and a short gradient (1 min) from (Solvent A) 85% water, 15% acetonitrile and 0.1% formic acid to (Solvent B) 90% acetonitrile, 10% water and 0.1% formic acid followed by isocratic conditions of Solvent B for 3.5 min at 0.4 mL/min. Column effluent was monitored using a Sciex API 4000 triple quadrupole mass spectrometer with a Turbo V electrospray ion source. Unknown concentrations of test compounds were determined using a calibration curve ranging from 1 to 3000 ng/mL.

[2] = tested on: eosinophils (PGD2-induced cell shape change); assay: PGD2-induced eosinophil cell shape assay in human whole blood; type: cell-based; conditions: 10 nM PGD2 final
Protocol: The Compounds of Formula (I) were diluted in dimethylsulphoxide so that the total volume of dimethylsulfoxide was kept constant at 2% dimethylsulphoxide (Me2SO). Serial dilutions of 200 μM to 0.09 μM were prepared. Samples of 90 μl of human blood from healthy volunteers (Centre de Transfusion Sanguine de Genéve) were pre-incubated in polypropylene Falcon tubes (BD 352063) for 20 minutes in a water bath at 37° C. with 10 μl of diluted compounds. For CRTH2 activation, 100 μl PGD2 (Cayman 12010) at 20 nM was added (10 nM final) to each tube and cells were maintained at 37° C. For negative control cells were treated with PBS. After 10 minutes, cell activation was stopped with 120 μl Formaldehyde 10% (4% final, Fluka 41650) and cells were rested for 10 minutes at room temperature. Fixed cells were transferred into polypropylene tubes and then treated for 1 hour in a water bath at 37° C. with 2 ml of Triton-Surfact-Amps X-100 (Pierce 28314) at 0.166% (0.13% Triton final). After several washes with PBS (red cells lysed progressively during washes, two washes are necessary), cells were analyzed by flow cytometry on a FACSCalibur. In one embodiment, the compounds of Formula (I) of the present invention are capable of blocking the cell shape change of eosinophils induced by PGD2 in Whole Blood.

CRTH2 [3] = biological target: T1, CRTH2 (Homo sapiens, UniProt Q9Y5Y4); assay: [35S]GTPγS binding assay on CHO-CRTH2 cell membranes; type: biochemical; conditions: without addition of PGD2; 100% of Emax being the activity measured by the addition of 1 μM of PGD2
T1 construct: expressed in transfected cells; host or cells: CHO cells
T1 sequence (Q9Y5Y4 1-395): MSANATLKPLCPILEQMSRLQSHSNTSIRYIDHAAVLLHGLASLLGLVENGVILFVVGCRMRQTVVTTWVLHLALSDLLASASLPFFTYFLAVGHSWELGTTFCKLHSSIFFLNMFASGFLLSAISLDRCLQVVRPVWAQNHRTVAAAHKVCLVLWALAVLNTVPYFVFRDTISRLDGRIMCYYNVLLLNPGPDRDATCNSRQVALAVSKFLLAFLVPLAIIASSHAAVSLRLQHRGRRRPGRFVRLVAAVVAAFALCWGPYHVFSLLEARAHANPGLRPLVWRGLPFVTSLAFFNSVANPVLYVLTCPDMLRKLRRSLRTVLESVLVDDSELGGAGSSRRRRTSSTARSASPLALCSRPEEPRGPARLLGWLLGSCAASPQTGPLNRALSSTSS
Protocol: Adherent CHO cells expressing hCRTH2 (Euroscreen, Belgium) were cultured in 225 cm^2 cell culture flasks (Corning, USA) in 30 ml of medium. After two rinses of phosphate buffered saline (PBS), cells were harvested in 10 ml of PBS containing 1 mM EDTA, centrifuged at 500×g for 5 min at 4° C. and frozen at −80° C. The pellet was re-suspended in 50 mM Tris-HCl, pH 7.4, 2 mM EDTA, 250 mM Sucrose, containing protease inhibitor cocktail tablets, (Complete EDTA-free, Roche, Germany) and incubated 30 min at 4° C. Cells were disrupted by nitrogen cavitation (Parr Instruments, USA) at 4° C. (800 p.s.i. for 30 min), and centrifuged at 500×g for 10 min at 4° C. Pellet containing nuclei and cellular debris was discarded and supernatant was centrifuged 60 min at 4° C. at 45000×g. Membrane pellet was re-suspended in storage buffer (10 mM HEPES/KOH pH 7.4, 1 mM EDTA, 250 mM sucrose, protease inhibitor cocktail tablets) using Dounce homogenization and frozen in liquid nitrogen, and stored at 80° C.
The [^35S]GTPγS assay measures the increase in guanine nucleotide exchange at G-proteins in cell membranes, resulting from agonist (PGD2) binding to CRTH2. […] Briefly, Compounds of Formula (I) are incubated in 96-well scintillating white polystyrene plates (Perkin Elmer, USA) in a final volume of 200 μl containing 20 mM HEPES/KOH pH 7.4, 3 mM MgCl2, 10 μg/ml Saponin, 5 μM GDP, 75 mM NaCl and 2% of dimethylsulphoxide (DMSO). […] After 60 min incubation at 30° C., reaction is stopped by centrifugation at 700×g, at 4° C. for 10 minutes and supernatant is removed. […] For IC50 determination, increasing concentrations of compounds are incubated in presence of a fixed concentration of PGD2 (EC80). For EC50 measurements, compounds are incubated without addition of PGD2. Basal [^35S]GTPγS activity is determined without addition of any ligands or compounds. 100% [^35S]GTPγS activity is measured by the addition of 1 μM of PGD2.

CRTH2 (DP2) = biological target: T2, CRTH2 (DP2) (Homo sapiens, UniProt Q9Y5Y4); assay: Radioligand binding Scintillation Proximity Assay ([3H]PGD2, hCRTH2-CHO cell membranes); conditions: 1.5 nM [3H]PGD2, hCRTH2-CHO cell membranes, SPA
T2 construct: host or cells: CHO cells
T2 sequence (Q9Y5Y4 1-395): T1 sequence (Q9Y5Y4 1-395)
In short: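 Membranes from CHO cells stably expressing human CRTH2, made by nitrogen cavitation and differential centrifugation. Compounds competed with [3H]PGD2 at 1% DMSO for 90 min with agitation at room temperature. Non-specific binding taken with 10 μM PGD2.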

CRTH2 [4] = biological target: T1, CRTH2; assay: Cellular Dielectric Spectroscopy in CHO-CRTH2 cells; type: cell-based; conditions: fixed concentration of PGD2 (EC80), read-out: IC50(μM) (CDS, antagonist)
Protocol: Cellular Dielectric Spectroscopy (CDS) is a label-free technology based on the measurement of complex impedance changes (delta Z or dZ). Impedance (Z) is related to the ratio of voltage to current as described by Ohm's law (Z=V/I). In order to measure the changes in impedance that occur in response to receptor stimulation, mammalian cells are seeded onto a custom 96-well microtiter plate that contains electrodes at the bottom of each well Key contributors to the impedance measurements are changes in cell-substrate adherence, changes in cell shape and volume, and changes in cell-cell interactions. These factors individually or collectively affect the flow of current, influencing the magnitude and characteristics of the signal measured. G-protein coupled receptors ligand-induced activity can be measured using this technology and specific G protein coupling can be identified. Activities of reference agonist and antagonist molecules of CRTH2 have been measured using this assay and similar results were obtained compared to different functional assays.
CHO—CRTH2 cells are cultured in HAM's F12 (Lonza, Switzerland) supplemented with 10% foetal calf serum (PAA, Australia) and 400 μg/ml Geneticin. 100000 cells/well are seeded in standard 96 W Microplates (MDS Analytical Technologies) and incubated at 37° C. in 5% CO2 for 24 hours. Cells are washed twice with 135 μl of cell key buffer (Hank's Balanced Salt Solution 1× (HBSS) (Invitrogen) supplemented with 10 mM HEPES pH 7.4 in presence of 1% DMSO). […] Results are expressed as the amplitude between the highest and the lowest signal produced (max-min). Basal and maximum activities are measured, respectively in absence or presence of PGD2 (EC80).

SMILES | IC50 [2] [µM] | Emax (CRTH2 [3]) [%] | IC50 (CRTH2 (DP2)) [nM] | also measured
CCC(=O)N(Cc1ccc(C(F)(F)F)cc1)c1cc(F)cc(-c2nnn[nH]2)c1 [Example 58, N-[3-fluoro-5-(1H-tetrazol-5-yl)phenyl]-N-[4-(trifluoromethyl)benzyl]propanamide] | 0.102 | -8.1 | 7.1 | Clearance iv (1 mg/Kg) ([1]; i.v. 1 mg/Kg): 5 mL/min/kg; AUC po (5 mg/Kg) ([1]; oral gavage 5 mg/Kg): 11212 ng·h/mL; Oral bioavailability ([1]; po 5 mg/Kg vs iv 1 mg/Kg): 76%
CCC(=O)N(Cc1ccc2c(c1)OCCO2)c1cc(-c2nnn[nH]2)ccc1F [Example 9, N-(2,3-dihydro-1,4-benzodioxin-6-ylmethyl)-N-[2-fluoro-5-(1H-tetrazol-5-yl)phenyl]propanamide] | 1.17 | – | 15 | –
CCC(=O)N(Cc1ccc(OC(F)(F)F)c(Cl)c1)c1cc(F)cc(-c2nnn[nH]2)c1 [Example 56, N-[3-chloro-4-(trifluoromethoxy)benzyl]-N-[3-fluoro-5-(1H-tetrazol-5-yl)phenyl]propanamide] | 0.082 | -13 | 24 | clearance ([1]; female, C57BL/6, mouse, plasma, iv, i.v. 1 mg/Kg): 15 mL/min/kg; AUC ([1]; female, C57BL/6, mouse, plasma, oral gavage 5 mg/Kg): 1910 ng·h/mL; bioavailability ([1]; female, C57BL/6, mouse, plasma, po 5 mg/Kg vs iv 1 mg/Kg): 36%
CCCCC(=O)N(Cc1ccc2c(c1)OCCO2)c1cccc(-c2nnn[nH]2)c1 [Example 5, N-(2,3-dihydro-1,4-benzodioxin-6-ylmethyl)-N-[3-(1H-tetrazol-5-yl)phenyl]pentanamide] | 0.536 | – | 8.8 | IC50 (CRTH2 [4]): 0.076 µM
CCCCC(=O)N(Cc1cccc(OC)c1)c1cccc(-c2nnn[nH]2)c1 [Example 13, N-(3-methoxybenzyl)-N-[3-(1H-tetrazol-5-yl)phenyl]pentanamide] | 0.914 | – | 53 | –
CCCCC(=O)N(Cc1ccc2c(c1)OCCO2)c1cc(F)cc(-c2nnn[nH]2)c1 [Example 11, N-(2,3-dihydro-1,4-benzodioxin-6-ylmethyl)-N-[3-fluoro-5-(1H-tetrazol-5-yl)phenyl]pentanamide] | 0.039 | -14.9 | 2.3 | –
CCCCC(=O)N(Cc1ccc(OC)cc1)c1cc(Cl)cc(-c2nnn[nH]2)c1 [Example 46, N-[3-chloro-5-(1H-tetrazol-5-yl)phenyl]-N-(4-methoxybenzyl)pentanamide] | 0.245 | -9.5 | 4.2 | –
CCC(=O)N(Cc1ccc(OC(F)(F)F)cc1)c1cc(Cl)cc(-c2nnn[nH]2)c1 [Example 57, N-[3-chloro-5-(1H-tetrazol-5-yl)phenyl]-N-[4-(trifluoromethoxy)benzyl]propanamide] | 0.233 | – | 15 | melting point: 144 °C
